The record followed here is PubChem BioAssay (NCI).

Each structure is given as a SMILES string.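 Protocol summary: plate cells (96-well), add compound at 5 concentrations, incubate 48 h, interpolate endpoints linearly. GI50 is the concentration that inhibits growth by half. TGI marks complete inhibition of growth.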

Test systems include DLD-1 colon; IGROV1 ovarian; KM20L2 colon; NCI-H522 lung; NCI/ADR-RES ovarian; OVCAR-3 ovarian; OVCAR-8 ovarian; SK-OV-3 ovarian; TK-10 renal; SR leukemia.
What all share (test): growth of human tumour cells (NCI), 48 h

Consider `Cl.[O-]c1cccc2cccnc12.[O-]c1cccc2cccnc12.[O-]c1cccc2cccnc12.[O-]c1cccc2cccnc12.[Ti+4]`, for which the TGI with DLD-1 colon was 1.6 µM; with IGROV1 ovarian it was 2.92 µM; with KM20L2 colon, above 76 µM; with NCI-H522 lung it was 0.256 µM; in the test with NCI/ADR-RES ovarian it was 11.5 µM; in the test on OVCAR-3 ovarian, 0.621 µM. For the same compound, the TGI in the test with OVCAR-8 ovarian was above 31.5 µM; in the test with SK-OV-3 ovarian, above 73.8 µM; in the test on TK-10 renal it was above 100 µM. Moreover, the GI50 in the test on NCI-H522 lung was 0.12 µM; in the test with NCI/ADR-RES ovarian it was 0.243 µM; in the test on OVCAR-3 ovarian it was 0.121 µM; with OVCAR-8 ovarian, 0.779 µM; with SK-OV-3 ovarian it was 3.94 µM; in the test on TK-10 renal, 53.7 µM.
Consider `C[C@H]1[C@H](C)CC[C@]2(C(=O)O)CCC3(COC(=O)/C=C/c4ccc(O)cc4)C(=CCC4[C@@]5(C)CC[C@H](O)C(C)(C)C5CC[C@]43C)[C@H]12` (stereo not given in full), for which the TGI in the test on DLD-1 colon stood at 15.8 µM; with IGROV1 ovarian it was 15.4 µM; in the test on KM20L2 colon, 16.4 µM; in the test on NCI-H522 lung it was 17.1 µM; with OVCAR-3 ovarian, 24.5 µM; with OVCAR-8 ovarian it was 26.5 µM. Moreover, the results for the TGI in the test with SK-OV-3 ovarian, in the test on SR leukemia and in the test with TK-10 renal were 6.99 µM, 64.3 µM and 22.3 µM, respectively.
Take `O=C(CC1(O)C(=O)Nc2c(Cl)cc(Cl)cc21)c1ccc([N+](=O)[O-])cc1` (stereo not given): the TGI in the test on DLD-1 colon is above 66 µM; in the test with IGROV1 ovarian it was above 90.6 µM; in the test with KM20L2 colon, above 100 µM; in the test on NCI-H522 lung, 46.4 µM; in the test with OVCAR-3 ovarian it was above 64.1 µM; in the test with OVCAR-8 ovarian, above 87.9 µM. The TGI was above 100 µM with SK-OV-3 ovarian, above 80.6 µM in the test on SR leukemia and above 100 µM in the test with TK-10 renal.
Take `CCc1cc2c(Nc3ccccc3)c3c(nc2s1)CCCC3`: the TGI with DLD-1 colon, with IGROV1 ovarian, in the test on KM20L2 colon, in the test with OVCAR-3 ovarian, with OVCAR-8 ovarian and with SK-OV-3 ovarian was above 100 µM throughout. Besides, the figures for the TGI in the test on SR leukemia and in the test with TK-10 renal were 47.2 µM and above 100 µM, respectively.
Regarding `CC(/C=C1\CCC(CN(C)C)C1=O)c1cccc(Br)c1` (stereo not given), the TGI in the test on DLD-1 colon came out at 35.1 µM; in the test with IGROV1 ovarian, 19.4 µM; with KM20L2 colon, 45.4 µM; in the test on NCI-H522 lung it was 22 µM; in the test with OVCAR-3 ovarian, 30.8 µM; in the test with OVCAR-8 ovarian, 36.8 µM. Also, the TGI in the test with SK-OV-3 ovarian was above 100 µM; in the test on TK-10 renal it was 30.6 µM.
For the compound `COc1ccc(C(=O)Nc2ccn(CCOC(=O)c3ccc(OC)cc3)c(=O)n2)cc1`, the TGI in the test on DLD-1 colon, in the test with IGROV1 ovarian, in the test with KM20L2 colon, in the test on NCI-H522 lung, in the test with OVCAR-3 ovarian and in the test with OVCAR-8 ovarian was above 100 µM throughout. Besides, the TGI in the test on SK-OV-3 ovarian, with SR leukemia and in the test with TK-10 renal was above 100 µM throughout.
With `CC(Oc1ccc2c(=O)cc(-c3ccccc3)oc2c1)C(=O)O` (stereo not given), the TGI with DLD-1 colon, with IGROV1 ovarian, in the test with KM20L2 colon, in the test on NCI-H522 lung, with OVCAR-3 ovarian and with OVCAR-8 ovarian was above 100 µM each time. In addition, the TGI in the test on SK-OV-3 ovarian, with SR leukemia and with TK-10 renal was above 100 µM throughout.
For `O=c1oc2c(O)c(O)cc3c(=O)oc4c(O)c(O)cc1c4c23`, in the test with DLD-1 colon, the GI50 is above 100 µM. In addition, the TGI is above 100 µM in the test with DLD-1 colon; above 100 µM in the test on IGROV1 ovarian; above 100 µM in the test on KM20L2 colon; 43.1 µM in the test with NCI-H522 lung; 82.2 µM with OVCAR-3 ovarian; 88.7 µM in the test on OVCAR-8 ovarian. Also, the TGI with SK-OV-3 ovarian, in the test with SR leukemia and with TK-10 renal was above 100 µM each time.
As for `CC(O)(c1ccc(OCCC[N+](C)(C)C)cc1)C(C)(O)c1ccc(OCCC[N+](C)(C)C)cc1` (stereo not given), the TGI in the test with DLD-1 colon, with IGROV1 ovarian, in the test with KM20L2 colon, in the test with NCI-H522 lung, with OVCAR-3 ovarian and in the test on OVCAR-8 ovarian was above 100 µM each time. This compound also returned a TGI with SK-OV-3 ovarian above 100 µM.
On to `CC1=C(C(=O)Nc2ccccc2C)C(c2ccccc2O)C(C(=O)Nc2ccccc2C)=C(C)N1`, for which the TGI amounted to 36.1 µM with DLD-1 colon; 37.5 µM in the test with IGROV1 ovarian; 45.6 µM in the test on KM20L2 colon; 36.3 µM with OVCAR-3 ovarian; 40.2 µM in the test on OVCAR-8 ovarian; 50.8 µM with SR leukemia. Further, the TGI with TK-10 renal is 86 µM.
On to `Nc1nc(N)c(CCCCc2ccccc2)c(/C=C/c2ccc([N+](=O)[O-])cc2)n1`, for which the TGI in the test on DLD-1 colon is above 100 µM; in the test on IGROV1 ovarian it was 20.2 µM; in the test with KM20L2 colon, 20.6 µM; with NCI-H522 lung, 5.57 µM; in the test with OVCAR-3 ovarian it was 8.4 µM; in the test on OVCAR-8 ovarian it was 12.7 µM. The TGI was 39.1 µM in the test with SK-OV-3 ovarian, 4.85 µM in the test with SR leukemia and 6.72 µM in the test with TK-10 renal.
As to `CCCCCCCCCCCCCC(=O)NO`, the TGI in the test with DLD-1 colon is above 94.8 µM; in the test on IGROV1 ovarian, 38.3 µM; in the test with KM20L2 colon, 26 µM; with NCI-H522 lung it was 19.5 µM; with OVCAR-3 ovarian it was 28 µM; in the test on OVCAR-8 ovarian it was 50.7 µM. The TGI is 73.5 µM in the test on SK-OV-3 ovarian, above 100 µM in the test on SR leukemia and 59.4 µM in the test on TK-10 renal.
On to `C=C1CCCC2OC(OC)CCC12` (stereo not given), for which the TGI in the test on DLD-1 colon, with IGROV1 ovarian, with KM20L2 colon, with NCI-H522 lung, in the test on OVCAR-3 ovarian and with OVCAR-8 ovarian was above 100 µM throughout. For the same compound, the TGI in the test with SK-OV-3 ovarian, in the test on SR leukemia and in the test on TK-10 renal was above 100 µM in each case.
On to `CC1(C)C2=CCCC(=O)[C@@]2(C)CC[C@@H]1O`, for which the TGI in the test on DLD-1 colon, with IGROV1 ovarian, in the test with KM20L2 colon, with NCI-H522 lung, in the test on OVCAR-3 ovarian and in the test on OVCAR-8 ovarian was above 100 µM in each case. Also, the TGI in the test on SK-OV-3 ovarian, with SR leukemia and in the test on TK-10 renal was above 100 µM throughout.
Turning to `CC1(C)C=C(N2CCN(C3=CC(C)(C)NC(C)(C)C3)CC2)CC(C)(C)N1`, the TGI with DLD-1 colon, with IGROV1 ovarian, in the test on KM20L2 colon, in the test on NCI-H522 lung, in the test on OVCAR-3 ovarian and in the test with OVCAR-8 ovarian was above 100 µM each time. Besides, the TGI in the test on SK-OV-3 ovarian, with SR leukemia and in the test with TK-10 renal was above 100 µM each time.
On to `CC(=O)CCn1[nH]c(=O)c(Cl)c(Cl)c1=O`, for which the TGI in the test on DLD-1 colon, in the test on IGROV1 ovarian, in the test with KM20L2 colon, with OVCAR-3 ovarian, with OVCAR-8 ovarian and in the test with SR leukemia was above 100 µM each time. In the test on TK-10 renal, this compound showed a TGI above 100 µM.
Consider `CCCCCCCCCCCCCP(=O)(OC)OC`, for which the TGI with DLD-1 colon is 30.5 µM; in the test on IGROV1 ovarian, 35.5 µM; with KM20L2 colon, 42.8 µM; in the test with NCI-H522 lung, 26.6 µM; in the test with OVCAR-3 ovarian it was 34.6 µM; in the test with OVCAR-8 ovarian, 31.9 µM. The TGI stood at 33.3 µM in the test with SK-OV-3 ovarian, 38.4 µM in the test with SR leukemia and 31.6 µM with TK-10 renal.
Turning to `CC(=O)OC(C)(C)C[N+](=O)[O-]`, the TGI in the test on DLD-1 colon, in the test with IGROV1 ovarian, in the test on KM20L2 colon, with NCI-H522 lung, in the test with OVCAR-3 ovarian and with OVCAR-8 ovarian was above 100 µM throughout. Moreover, the TGI with SK-OV-3 ovarian, in the test on SR leukemia and with TK-10 renal was above 100 µM throughout.
Regarding `COC(=O)/C=C(C)/C=C/c1c(C)c(C(C)=O)c(C)n1C`, the TGI in the test on DLD-1 colon, in the test on IGROV1 ovarian, with KM20L2 colon, in the test with NCI-H522 lung, with OVCAR-3 ovarian and in the test with OVCAR-8 ovarian was above 100 µM in each case. The TGI in the test with SK-OV-3 ovarian and in the test with TK-10 renal was above 100 µM in each case.
Turning to `O=C1CS(=O)c2ccccc2N1` (stereo not given), the TGI in the test on DLD-1 colon, with IGROV1 ovarian, in the test on KM20L2 colon, with NCI-H522 lung, in the test on OVCAR-3 ovarian and with OVCAR-8 ovarian was above 100 µM each time. Besides, the TGI in the test on SK-OV-3 ovarian, in the test with SR leukemia and with TK-10 renal was above 100 µM each time.
Turning to `CCN(CC)CCCNc1nccc2c(C)c3[nH]c4ccncc4c(=O)c3cc12`, the TGI with DLD-1 colon was 21.8 µM; in the test on IGROV1 ovarian it was 21.7 µM; with KM20L2 colon, 40 µM; in the test with NCI-H522 lung, 1.86 µM; with OVCAR-3 ovarian, 8.88 µM; in the test with OVCAR-8 ovarian, 2.36 µM. Also, the figures for the TGI with SK-OV-3 ovarian, in the test with SR leukemia and in the test with TK-10 renal were 16 µM, 2.23 µM and 22.5 µM, respectively.
Regarding `O=C1C(c2ccccc2)=[N+]([O-])c2cc([N+](=O)[O-])ccc21`, the TGI in the test with DLD-1 colon was found to be 46.9 µM; with IGROV1 ovarian it was 53.5 µM; in the test on KM20L2 colon, 47.3 µM; in the test with NCI-H522 lung, 29.1 µM; with OVCAR-3 ovarian it was 36.8 µM; with OVCAR-8 ovarian, 32.6 µM. Besides, the TGI is above 100 µM with SK-OV-3 ovarian and 52.4 µM with TK-10 renal.
